Test results reported in ChEMBL document CHEMBL1135227, “Substituted 2-(R)-methyl piperazines as muscarinic M(2) selective ligands” (Bioorg Med Chem Lett, 2002).

What was measured:
[1] = biological target: T1, Muscarinic acetylcholine receptor M2 (Homo sapiens, UniProt P08172); assay: Binding affinity against human cloned Muscarinic acetylcholine receptor M2.
T1 sequence (P08172 whole entry): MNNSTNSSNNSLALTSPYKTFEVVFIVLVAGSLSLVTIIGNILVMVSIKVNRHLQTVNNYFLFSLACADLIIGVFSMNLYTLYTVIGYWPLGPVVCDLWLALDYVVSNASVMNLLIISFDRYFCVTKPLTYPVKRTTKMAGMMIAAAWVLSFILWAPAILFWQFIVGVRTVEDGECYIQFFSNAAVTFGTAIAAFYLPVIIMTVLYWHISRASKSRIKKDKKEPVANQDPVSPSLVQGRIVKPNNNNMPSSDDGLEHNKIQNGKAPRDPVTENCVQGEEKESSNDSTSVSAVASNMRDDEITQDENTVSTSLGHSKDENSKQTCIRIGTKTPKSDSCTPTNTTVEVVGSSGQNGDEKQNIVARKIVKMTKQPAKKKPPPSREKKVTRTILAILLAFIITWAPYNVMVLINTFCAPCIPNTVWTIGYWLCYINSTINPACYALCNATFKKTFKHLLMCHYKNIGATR

[2] = biological target: T2, Muscarinic acetylcholine receptor M1 (Homo sapiens) (UniProt P11229); assay: Ratio of binding affinities at human cloned Muscarinic acetylcholine receptor M1 and human cloned Muscarinic acetylcholine receptor M2.
T2 sequence (whole entry): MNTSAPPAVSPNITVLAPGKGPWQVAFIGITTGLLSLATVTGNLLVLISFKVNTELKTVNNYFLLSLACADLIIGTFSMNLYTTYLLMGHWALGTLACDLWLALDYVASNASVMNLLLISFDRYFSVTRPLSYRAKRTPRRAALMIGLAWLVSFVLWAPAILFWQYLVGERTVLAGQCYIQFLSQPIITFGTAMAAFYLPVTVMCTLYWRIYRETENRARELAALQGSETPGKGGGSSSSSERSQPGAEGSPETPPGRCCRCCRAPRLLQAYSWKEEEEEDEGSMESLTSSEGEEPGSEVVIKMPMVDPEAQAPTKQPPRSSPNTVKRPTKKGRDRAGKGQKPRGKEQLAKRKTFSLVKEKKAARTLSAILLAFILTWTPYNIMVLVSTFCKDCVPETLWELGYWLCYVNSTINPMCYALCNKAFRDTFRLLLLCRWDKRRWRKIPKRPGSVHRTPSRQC

[3] = biological target: T1, Muscarinic acetylcholine receptor M2; assay: Compound was tested for its binding affinity against cloned human Muscarinic acetylcholine receptor M2

SMILES | Ki [1] | Ratio [2] | Ki [3]
COc1ccc(S(=O)(=O)c2ccc(C(C#N)N3CCN(C4CCCCC4)C[C@@H]3C)cc2)cc1 (stereo not given in full) | 16 nM | 5 | –
CCCCS(=O)(=O)N1CCC(N2CCN([C@@H](C)c3ccc(S(=O)(=O)c4ccc5c(c4)OCO5)cc3)[C@H](C)C2)CC1 | 0.2 nM | 198 | –
C[C@@H]1CN(C2CCCCC2)CCN1[C@@H](C)c1ccc(S(=O)(=O)c2ccc3c(c2)OCO3)cc1 | 0.03 nM | 61 | –
COc1ccc(S(=O)(=O)c2ccc(C(C#N)N3CCN(C4CCCCC4)C[C@H]3C)cc2)cc1 (stereo not given in full) | – | 36 | 0.16 nM
CCS(=O)(=O)N1CCC(N2CCN([C@@H](C)c3ccc(S(=O)(=O)c4ccc5c(c4)OCO5)cc3)[C@H](C)C2)CC1 | 0.7 nM | 109 | –
CCCS(=O)(=O)N1CCC(N2CCN([C@@H](C)c3ccc(S(=O)(=O)c4ccc5c(c4)OCO5)cc3)[C@H](C)C2)CC1 | 0.2 nM | 281 | –
COc1ccc(S(=O)(=O)c2ccc([C@@H](C)N3CCN(C4CCCCC4)C[C@H]3C)cc2)cc1 | 0.15 nM | 30 | –
COc1ccc(S(=O)(=O)c2ccc([C@@H](C)N3CCN(C4CCCCC4)[C@H](C)C3)cc2)cc1 | 0.14 nM | 10 | –
C[C@@H]1CN(C2CCNCC2)CCN1[C@@H](C)c1ccc(S(=O)(=O)c2ccc3c(c2)OCO3)cc1 | 9 nM | 4 | –
C[C@@H]1CN(C2CCCCC2)CCN1[C@H](C)c1ccc(S(=O)(=O)c2ccc3c(c2)OCO3)cc1 | 0.03 nM | 30 | –
COc1ccc(S(=O)(=O)c2ccc([C@H](C)N3CCN(C4CCCCC4)C[C@H]3C)cc2)cc1 | 0.3 nM | 44 | –

Continued, values first:

Ki [1] | Ratio [2] | Ki [3] | SMILES
1.3 nM | 15 | – | CCCCC(=O)N1CCC(N2CCN([C@@H](C)c3ccc(S(=O)(=O)c4ccc5c(c4)OCO5)cc3)[C@H](C)C2)CC1
– | 10 | – | COc1ccc(S(=O)(=O)c2ccc(C(C)N3CCN(C4CCCCC4)CC3)cc2)cc1 (stereo not given)
0.9 nM | 32 | – | C[C@@H]1CN(C2CCN(C(=O)c3ccccc3)CC2)CCN1[C@@H](C)c1ccc(S(=O)(=O)c2ccc3c(c2)OCO3)cc1
0.3 nM | 23 | – | COc1ccc(S(=O)(=O)c2ccc(CN3CCN(C4CCCCC4)C[C@H]3C)cc2)cc1
0.8 nM | 40 | – | C[C@@H]1CN(C2CCN(S(=O)(=O)c3ccccc3)CC2)CCN1[C@@H](C)c1ccc(S(=O)(=O)c2ccc3c(c2)OCO3)cc1
2.5 nM | 10 | – | CCNC(=O)N1CCC(N2CCN([C@@H](C)c3ccc(S(=O)(=O)c4ccc5c(c4)OCO5)cc3)[C@H](C)C2)CC1
0.04 nM | 10 | – | COc1ccc(S(=O)(=O)c2ccc([C@@H](C)N3CCN(C4CCCCC4)[C@@H](C)C3)cc2)cc1
